Results reported in patent EP0449955B1, “SYNTHETIC HIV-LIKE PEPTIDES, THEIR COMPOSITIONS AND USES” (CLARITY TECHNOLOGIES INCORPORATED, priority 1988, dated 1996).
Entries after “also recorded” stand apart in the source; their conditions may differ.

Key:
SIV/HIV-2 antibodies = experiment: EIA of HIV-2 gp32 peptide-protein conjugates against macaque serum pools; assay type: binding; conditions: peptide conjugated via C-terminus to BSA (SMCC), coated at 10 micrograms peptide/ml; 1:101 dilution of SIV+ macaque serum pool; Figure 5
Experimental: The free peptides or peptide-protein conjugates of Figures 1-13 were initially screened for immunoreactivity by coating each well of polystyrene microtiter EIA plates (Costar, Cambridge, Massachusetts, U.S.A.) with 0.2 ml amounts of concentrations of 5-50 micrograms/ml peptide in Tris buffer, 10 mM, pH 8.0, at 4°C overnight. Peptides or peptide-protein conjugates showing immunoreactivity by EIA were then further diluted for coating to determine the minimal concentrations required that allowed maximal immunoreactivity with antibodies to HIV, and minimal nonspecific reactivity with normal sera. The EIA tests were performed as follows: The coating solution was removed from each well and the wells were blocked at 37°C for 30 minutes with a solution of 50 mM phosphate, 100 mM NaCl, pH 7.4, 1% BSA, 0.5% gelatin. The wells were then aspirated dry with a microtiter plate washer and washed 3 times with a solution of 50 mM phosphate, 100 mM NaCl, .05% Tween 20, (trademark) pH 7.4 (PBST). […] Reactions were stopped with 50 microliters of 4N H₂SO₄, and the color development was quantitated in a Multiscan plate reader at A₄₉₂. […] Most peptides and peptide conjugates were initially screened against a 1:101 dilution of pools of HIV positive or HIV negative sera, and the same serum pool was used to allow quantitative comparison of immunoreactivity of different free peptides or peptide-protein conjugates.
The peptides in Figures 1 and 5 were synthesized as described in Example 1 and conjugated to KLH or BSA as described in Example 2. These peptide-protein conjugates were coated to polystyrene microtiter plates all at a concentration 10 micrograms peptide/ml and evaluated for immunoreactivity as described in Example 3, using a 1:101 dilution of a pool of sera (HIV+/SIV+, respectively) containing antibodies to HIV-1 (Figure 1) or to HIV-2 (Figure 5), as well as pooled serum (HIV-/SIV-, respectively) containing no antibodies to HIV-1 or HIV-2. […]

antibodies to HIV-2 = experiment: EIA of HIV-2 peptide-BSA conjugates with macaque sera; assay type: binding; conditions: macaque sera containing or not containing antibodies to HIV-2, Figure 7
Experimental: The synthetic peptides of Figures 1-8 were reduced with 10mM DTT, or with immobilized DTT (Reductacryl, Calbiochem, San Diego, California, U.S.A., 10 mg Reductacryl per mg peptide) overnight at 4°C, pH8 in 10mM borate or other buffers depending upon peptide solubility, with gentle mixing. KLH was dissolved at a concentration of 10-30 mg/ml in 10 mM phosphate buffer pH 7.2., and BSA was dissolved at a concentration of 20-80 mg/ml for treatment with heterobifunctional linkers MBS (m-Maleimidobenzoyl-N-hydroxysuccinimide ester), SPDP [N-Succinimidyl 3-(2 pyridyldithio)propionate], or Sulfo-SMCC [Sulfo-Succinimidyl 4(N-maleimidomethyl)-cyclohexane-1-carboxylate]. The heterobifunctional linkers were added to the protein solutions in a molar excess of linker to BSA of 100, or of linker to KLH of 1000. MBS was dissolved in DMF at 10mg/ml, SPDP was dissolved in absolute ethanol at 10mg/ml and each of these was added dropwise with mixing into the protein solution, whereas the Sulfo-SMCC dry powder was dissolved into the protein solution. Each protein-linker mixture was reacted at room temperature for 15 minutes to 1 hour and then free linker was separated from BSA-linker or KLH-linker by gel chromatography with Sephadex G25 using 50mM phosphate, pH 6 for KLH-MBS, 10mM acetate, 100 mM Nacl, pH 4.6 for BSA-SPDP, or 100 mM phosphate, 1 mM EDTA, pH 6.5 for BSA-SMCC. The reduced peptides were separated from DTT by Sephadex G10 column chromatography when soluble DTT was used, or by centrifugation followed by filtration through a 0.22 micron filter when Reductacryl was used. Reduced peptides were combined with linker treated KLH or BSA in molar ratios of 100-1000 peptide/KLH-MBS, 1-50 peptide/BSA-SMCC, and 0.1-10 peptide/BSA-SPDP. Each reduced peptide was added to the linker-treated protein with mixing, overlayed with N₂, and then mixed gently at room temperature for one hour, and then overnight at 4°C. The SMCC-BSA conjugates were further treated with a 1 mM final concentration of mercaptoethylamine for 4 hours, and then dialyzed overnight against 100 volumes of buffer (20mM phosphate, 1 mM EDTA, 0.05% sodium azide, pH 6.5) at 4°C. All other conjugates were adjusted to a final concentration of sodium azide of 0.05%. Optimal molar ratios of peptide/protein for the conjugates were determined by solubility and antigenicity (as evaluated by EIA).
The free peptides or peptide-protein conjugates of Figures 1-13 were initially screened for immunoreactivity by coating each well of polystyrene microtiter EIA plates (Costar, Cambridge, Massachusetts, U.S.A.) with 0.2 ml amounts of concentrations of 5-50 micrograms/ml peptide in Tris buffer, 10 mM, pH 8.0, at 4°C overnight. […]

antibodies to HIV-1 [1] = experiment: EIA of HIV-1 gp41 peptide-protein conjugates against serum pools; assay type: binding, human; conditions: peptide conjugated via C-terminus to BSA (SMCC), coated at 10 micrograms peptide/ml; 1:101 dilution of HIV+ serum pool; Figure 1
Experimental: (§1) The free peptides or peptide-protein conjugates of Figures 1-13 were initially screened for immunoreactivity by coating each well of polystyrene microtiter EIA plates (Costar, Cambridge, Massachusetts, U.S.A.) with 0.2 ml amounts of concentrations of 5-50 micrograms/ml peptide in Tris buffer, 10 mM, pH 8.0, at 4°C overnight. Peptides or peptide-protein conjugates showing immunoreactivity by EIA were then further diluted for coating to determine the minimal concentrations required that allowed maximal immunoreactivity with antibodies to HIV, and minimal nonspecific reactivity with normal sera. The EIA tests were performed as follows: The coating solution was removed from each well and the wells were blocked at 37°C for 30 minutes with a solution of 50 mM phosphate, 100 mM NaCl, pH 7.4, 1% BSA, 0.5% gelatin. The wells were then aspirated dry with a microtiter plate washer and washed 3 times with a solution of 50 mM phosphate, 100 mM NaCl, .05% Tween 20, (trademark) pH 7.4 (PBST). A 1:101 dilution (in PBST with 1% BSA, 1% NRS) of the primate serum to be tested was then added as 0.2 ml to each washed well and the plates were incubated at 37°C for 30 minutes. The plates were then washed x 3 with PBST, and 0.2 ml amounts of a 1:2000 dilution of goat anti-human (GAH) peroxidase enzyme conjugate (Organon Teknika, Cappel, Melvern, Pennsylvania, U.S.A.) that recognized human IgG, IgA, and IgM were added to each well, and the plates were incubated for 30 minutes at 37°C. The plates were then washed x 3 with PBST and incubated with 0.2 ml/well substrate consisting of 0,1M citric acid pH 5.2, 0.1 mg/ml o-phenylene diamine, 0.01% H₂O₂, at room temperature in the dark for 10 minutes. Reactions were stopped with 50 microliters of 4N H₂SO₄, and the color development was quantitated in a Multiscan plate reader at A₄₉₂. In each series of experiments positive and negative controls were included, and all tests were done in duplicate or quadruplicate. Most peptides and peptide conjugates were initially screened against a 1:101 dilution of pools of HIV positive or HIV negative sera, and the same serum pool was used to allow quantitative comparison of immunoreactivity of different free peptides or peptide-protein conjugates.
The peptides in Figures 1 and 5 were synthesized as described in Example 1 and conjugated to KLH or BSA as described in Example 2. These peptide-protein conjugates were coated to polystyrene microtiter plates all at a concentration 10 micrograms peptide/ml and evaluated for immunoreactivity as described in Example 3, using a 1:101 dilution of a pool of sera (HIV+/SIV+, respectively) containing antibodies to HIV-1 (Figure 1) or to HIV-2 (Figure 5), as well as pooled serum (HIV-/SIV-, respectively) containing no antibodies to HIV-1 or HIV-2. […] Since sera from patients infected with HIV-2 are relatively unavailable in the United States, the immunoreactivity of HIV-2 synthetic peptides was assessed using serum from macaques infected with SIV, obtained from the University of Washington Primate Center, Seattle, Washington, U.S.A. The AA sequence of SIV is nearly identical to HIV-2 in the region of the peptides synthesized (see Myers et al., Human Retroviruses and AIDS, 1988. A compilation of nucleic acid and amino acid sequences. Los Alamos National Laboratory, Los Alamos, New Mexico, 87545, USA).

antibody to HIV-1 = experiment: EIA of p24 synthetic peptide-BSA conjugates with serum pools and individual sera; assay type: binding, human
Experimental: as §1
Figure 8 illustrates the immunoreactivity and AA sequences of synthetic peptides of the p24 protein of HIV-1, when conjugated to BSA via their C-termini using SMCC, and reacted with a pool of approximately 50 sera from persons containing antibody to HIV-1, or with a pool of approximately 30 sera from individuals devoid of antibody to HIV-1. […] No negative sera (0/85, 0%) reacted, and 17 positive sera (17/98, 17%) were immunoreactive. It has been reported that individuals lose antibodies to p24 during the course of progression from asymptomatic infection to clinical disease and AIDS (Franchini et al., Blood 69:(2):437-441, 1987, and Weber et al., Lancet i:119-122, 1987), which may explain the lower frequency of antibodies to this peptide in the sera tested.

antibodies to HIV-1 [2] = experiment: EIA of peptide-carrier conjugates with individual human sera; assay type: binding; conditions: BSA-SMCC conjugate
Experimental: as §1
Figure 10A illustrates the immunoreactivity of synthetic natural peptides 2S06 and 2S09 (Figure 1) when conjugated via their C-terminal GC spacer to KLH using the heterobifunctional linker MBS. […] However, the immunoreactivity of many of the positives was low (A₄₉₂ less than 1.0), and some of the negative samples had A₄₉₂ values slightly above 0.20, resulting in minimal discrimination between negatives and positives. This poor discrimination led to a search for an improved carrier protein and/or linker.
Figure 10B illustrates the reactivity of synthetic natural peptide IWGCSGKLICTTAVPGC (2S09) when conjugated through its C-terminus to BSA via the heterobifunctional linker SMCC. […] Improvement in assay performance as compared with results of Example 5A is noted with respect to negative samples having lower A₄₉₂ values, and most positive samples having higher A₄₉₂ values. […] Because of the possibility that some of the low responsiveness might be due to antigenic differences of genetic variants in the region of this epitope, as reported for HIV isolates from Zaire (Gnann et al., Science 237:1346-1349, 1987), the natural sequence variant peptide 5S67 (Figure 3) was synthesized, chemically linked to BSA with SMCC, and tested against the same sera, plus one additional negative serum sample (Figure 10C). […] This instigated a search for unnatural sequence variants of peptide 2S09 that would retain high immunoreactivity with most sera that contained antibodies to HIV-1, and yet retain low reactivity with sera devoid of antibodies to HIV. […]

[3] = BSA-SMCC conjugate, 85 individual sera without antibodies to HIV-1
[4] = BSA-SMCC conjugate, 98 individual sera with antibodies to HIV-1

Sequence	immunoreactivity with HIV-1 antibodies (antibodies to HIV-1 [1])	other results
SWGCAFRQVCHTTVPGC [2S27]		immunoreactivity with SIV/HIV-2 antibodies (SIV/HIV-2 antibodies): maximally immunoreactive; also recorded: Significant immunoreactivity; also recorded: best immunoreactivity; discrimination of positive from negative samples (antibodies to HIV-2): most favorable performances
AVERYLKDQQLLGC [2S01]	significantly less immunoreactive	
GKLICTTAVPWNASWGC [3S55]	higher reactivity; also recorded: Significant immunoreactivity	
CSGKLICTTAVPWNAGC [3S51]	higher reactivity; also recorded: Significant immunoreactivity	
QQLLGIWGCSGKLICGC [3S36]	Significant immunoreactivity	
DQARLNSWGCAFRQVC [2S24]		immunoreactivity with SIV/HIV-2 antibodies (SIV/HIV-2 antibodies): maximally immunoreactive; also recorded: Significant immunoreactivity; also recorded: best immunoreactivity; discrimination of positive from negative samples (antibodies to HIV-2): most favorable performances
RILAVERYLKDQQLLGIWGCSGKLIC [4S25, reference compound]	lower immunoreactivity; also recorded: lower or comparable immunoreactivity; also recorded: Significant immunoreactivity	
ALGPAATLEEMMTACGC [5S94]		negative sera that reacted (antibody to HIV-1; [3]): 0/85; negative sera that reacted (percent) (antibody to HIV-1; [3]): 0%; positive sera immunoreactive (antibody to HIV-1; [4]): 17/98; positive sera immunoreactive (percent) (antibody to HIV-1; [4]): 17%; immunoreactivity with serum pools (antibody to HIV-1; BSA-SMCC conjugates, pool of approximately 50 positive sera and pool of approximately 30 negative sera, Figure 8): proved to be the immunoreactive peptide; also recorded: significant immunoreactivity
LLGIWGCSGKLICTTGC [2S06]	Significant immunoreactivity	
SWGCAFRQVCHTSVPGC [5S86]		discrimination of positive from negative samples (antibodies to HIV-2): most favorable performances
IWGCSGKMICTTAVPGC [5S76]		immunoreactivity with positive sera (antibodies to HIV-1 [2]; 98 sera containing antibodies to HIV-1, Figures 10B, 10C, 11): strong immunoreactivity with some sera that reacted weakly in Figure 10B; positive samples giving A492 less than 1.0 (antibodies to HIV-1 [2]; of 98 positive sera, Figure 11B): Five
KDQQLLGIWGCSGKLGC [2S04]	Significant immunoreactivity	
KLICTTAVPWNASWSGC [2S15]	higher reactivity; also recorded: Significant immunoreactivity	
ERYLKDQQLLGIIVGC [2S02]	significantly less immunoreactive	
IKQLQARILAVERYLKDQQ [4S24, reference compound]	lower immunoreactivity	
LGIWGCSGKLICTTAGC [2S07]	Significant immunoreactivity	
YLKDQQLLGIWGCSGC [2S03]	significantly less immunoreactive	
GCSGKLICTTAVPWNGC [2S11]	higher reactivity; also recorded: Significant immunoreactivity	
SGKLICTTAVPWNASGC [2S13]	higher reactivity; also recorded: Significant immunoreactivity	
